Data as given in the kinase profiling compilation of Christmann-Franck et al. (2016).
Values joined by “and” are separate entries in the source; they are usually repeats but may differ in a detail not shown here. Equal entries are not always repeated.

Columns and labels:
Experiment in all cases: radiometric filter-binding kinase assay, Kinase HotSpot
Conditions in all cases: compound 0.5 µM; ATP 10 µM
ROCK2 (human) = ROCK2 (human) (UniProt O75116)
MAPK3 (human) = MAPK3 (human) (UniProt P27361)
CDK9 CCNT1 (human) = CDK9 CCNT1 (human) (UniProt P50750+O60563)
PRKCG (human) = PRKCG (human) (UniProt P05129)
CSNK1E (human) = CSNK1E (human) (UniProt P49674)
PRKACA (human) = PRKACA (human) (UniProt P17612)
EPHA5 (human) = EPHA5 (human) (UniProt P54756)
CHUK (human) = CHUK (human) (UniProt O15111)
IKBKB (human) = IKBKB (human) (UniProt O14920)
MAPK13 (human) = MAPK13 (human) (UniProt O15264)
ULK1 (human) = ULK1 (human) (UniProt O75385)
PKN2 (human) = PKN2 (human) (UniProt Q16513)
MARK4 (human) = MARK4 (human) (UniProt Q96L34)
TGFBR2 (human) = TGFBR2 (human) (UniProt P37173)
NLK (human) = NLK (human) (UniProt Q9UBE8)
MAPK1 (human) = MAPK1 (human) (UniProt P28482)
MAPK1 (human), sequence (P28482 whole entry, looked up): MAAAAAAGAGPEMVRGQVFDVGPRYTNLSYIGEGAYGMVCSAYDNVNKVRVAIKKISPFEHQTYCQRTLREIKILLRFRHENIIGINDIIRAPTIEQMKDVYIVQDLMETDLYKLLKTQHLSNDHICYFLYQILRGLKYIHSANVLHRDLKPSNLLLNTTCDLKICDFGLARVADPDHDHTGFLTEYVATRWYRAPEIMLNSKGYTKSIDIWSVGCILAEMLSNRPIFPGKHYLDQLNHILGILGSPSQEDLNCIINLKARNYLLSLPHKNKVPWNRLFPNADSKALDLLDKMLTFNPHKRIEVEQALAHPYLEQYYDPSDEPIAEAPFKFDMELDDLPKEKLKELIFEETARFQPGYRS

CAMK1D (human) = CAMK1D (human) (UniProt Q8IU85)
CLK3 (human) = CLK3 (human) (UniProt P49761)
CSNK2A2 (human) = CSNK2A2 (human) (UniProt P19784)
RAF1 (human) = RAF1 (human) (UniProt P04049)
ALK (human) = ALK (human) (UniProt Q9UM73)
NTRK1 (human) = NTRK1 (human) (UniProt P04629)
CDC42BPB (human) = CDC42BPB (human) (UniProt Q9Y5S2)
FGFR4 (human) = FGFR4 (human) (UniProt P22455)
MAP3K11 (human) = MAP3K11 (human) (UniProt Q16584)
CDK5 CDK5R1 p35 (human) = CDK5 CDK5R1 p35 (human) (UniProt Q00535+Q15078)
ADRBK2 (human) = ADRBK2 (human) (UniProt P35626)
PRKCE (human) = PRKCE (human) (UniProt Q02156)
WNK3 (human) = WNK3 (human) (UniProt Q9BYP7)
GRK4 (human) = GRK4 (human) (UniProt P32298)
GRK4 (human), sequence (P32298 whole entry, looked up): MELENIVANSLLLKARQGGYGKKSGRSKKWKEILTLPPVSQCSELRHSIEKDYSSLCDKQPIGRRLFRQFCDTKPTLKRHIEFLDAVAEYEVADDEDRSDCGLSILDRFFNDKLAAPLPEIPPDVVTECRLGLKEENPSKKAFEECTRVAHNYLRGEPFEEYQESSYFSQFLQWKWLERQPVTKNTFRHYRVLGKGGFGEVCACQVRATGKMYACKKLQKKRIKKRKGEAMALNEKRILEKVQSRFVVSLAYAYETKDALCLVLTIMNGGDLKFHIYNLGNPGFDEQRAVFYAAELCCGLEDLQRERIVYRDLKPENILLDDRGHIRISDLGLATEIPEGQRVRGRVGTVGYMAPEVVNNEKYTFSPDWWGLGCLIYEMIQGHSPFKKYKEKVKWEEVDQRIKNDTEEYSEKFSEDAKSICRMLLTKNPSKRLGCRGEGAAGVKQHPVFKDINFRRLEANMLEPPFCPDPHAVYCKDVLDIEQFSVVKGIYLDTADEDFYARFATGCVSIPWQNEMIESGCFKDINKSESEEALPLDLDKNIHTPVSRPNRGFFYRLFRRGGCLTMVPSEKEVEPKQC

ERBB4 (human) = ERBB4 (human) (UniProt Q15303)
HIPK3 (human) = HIPK3 (human) (UniProt Q9H422)
HIPK3 (human), sequence (Q9H422 whole entry, looked up): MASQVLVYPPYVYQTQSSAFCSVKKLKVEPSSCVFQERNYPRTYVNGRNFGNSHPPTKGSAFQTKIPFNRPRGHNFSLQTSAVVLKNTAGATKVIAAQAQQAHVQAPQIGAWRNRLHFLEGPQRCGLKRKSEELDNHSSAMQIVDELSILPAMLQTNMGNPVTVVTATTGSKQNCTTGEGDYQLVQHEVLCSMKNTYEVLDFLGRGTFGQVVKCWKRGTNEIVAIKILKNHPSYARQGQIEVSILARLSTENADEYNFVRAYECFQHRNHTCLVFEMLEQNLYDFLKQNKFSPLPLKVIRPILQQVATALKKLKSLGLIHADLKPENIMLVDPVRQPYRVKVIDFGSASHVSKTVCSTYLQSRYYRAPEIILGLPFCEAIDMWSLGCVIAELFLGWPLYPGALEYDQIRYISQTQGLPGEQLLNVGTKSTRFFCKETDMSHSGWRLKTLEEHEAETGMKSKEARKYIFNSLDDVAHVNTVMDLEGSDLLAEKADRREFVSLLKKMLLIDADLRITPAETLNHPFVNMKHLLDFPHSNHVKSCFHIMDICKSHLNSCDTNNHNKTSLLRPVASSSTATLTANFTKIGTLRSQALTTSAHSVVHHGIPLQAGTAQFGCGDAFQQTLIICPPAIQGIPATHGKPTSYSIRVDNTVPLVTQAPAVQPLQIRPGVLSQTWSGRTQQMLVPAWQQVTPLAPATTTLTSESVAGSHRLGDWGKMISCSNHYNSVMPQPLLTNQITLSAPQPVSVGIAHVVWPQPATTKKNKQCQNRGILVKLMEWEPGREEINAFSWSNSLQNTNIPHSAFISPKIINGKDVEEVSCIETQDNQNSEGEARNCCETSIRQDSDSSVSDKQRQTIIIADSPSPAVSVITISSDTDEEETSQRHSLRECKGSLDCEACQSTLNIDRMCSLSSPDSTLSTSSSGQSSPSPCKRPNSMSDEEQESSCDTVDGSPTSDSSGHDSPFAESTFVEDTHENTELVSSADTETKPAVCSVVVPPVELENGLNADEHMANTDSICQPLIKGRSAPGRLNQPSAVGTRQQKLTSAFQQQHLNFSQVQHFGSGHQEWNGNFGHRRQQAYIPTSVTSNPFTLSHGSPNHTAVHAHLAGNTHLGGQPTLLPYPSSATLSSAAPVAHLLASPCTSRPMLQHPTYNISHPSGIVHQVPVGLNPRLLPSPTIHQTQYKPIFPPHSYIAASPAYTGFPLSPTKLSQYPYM

EPHA2 (human) = EPHA2 (human) (UniProt P29317)
TSSK1B (human) = TSSK1B (human) (UniProt Q9BXA7)
NTRK3 (human) = NTRK3 (human) (UniProt Q16288)
NTRK3 (human), sequence (Q16288 whole entry, looked up): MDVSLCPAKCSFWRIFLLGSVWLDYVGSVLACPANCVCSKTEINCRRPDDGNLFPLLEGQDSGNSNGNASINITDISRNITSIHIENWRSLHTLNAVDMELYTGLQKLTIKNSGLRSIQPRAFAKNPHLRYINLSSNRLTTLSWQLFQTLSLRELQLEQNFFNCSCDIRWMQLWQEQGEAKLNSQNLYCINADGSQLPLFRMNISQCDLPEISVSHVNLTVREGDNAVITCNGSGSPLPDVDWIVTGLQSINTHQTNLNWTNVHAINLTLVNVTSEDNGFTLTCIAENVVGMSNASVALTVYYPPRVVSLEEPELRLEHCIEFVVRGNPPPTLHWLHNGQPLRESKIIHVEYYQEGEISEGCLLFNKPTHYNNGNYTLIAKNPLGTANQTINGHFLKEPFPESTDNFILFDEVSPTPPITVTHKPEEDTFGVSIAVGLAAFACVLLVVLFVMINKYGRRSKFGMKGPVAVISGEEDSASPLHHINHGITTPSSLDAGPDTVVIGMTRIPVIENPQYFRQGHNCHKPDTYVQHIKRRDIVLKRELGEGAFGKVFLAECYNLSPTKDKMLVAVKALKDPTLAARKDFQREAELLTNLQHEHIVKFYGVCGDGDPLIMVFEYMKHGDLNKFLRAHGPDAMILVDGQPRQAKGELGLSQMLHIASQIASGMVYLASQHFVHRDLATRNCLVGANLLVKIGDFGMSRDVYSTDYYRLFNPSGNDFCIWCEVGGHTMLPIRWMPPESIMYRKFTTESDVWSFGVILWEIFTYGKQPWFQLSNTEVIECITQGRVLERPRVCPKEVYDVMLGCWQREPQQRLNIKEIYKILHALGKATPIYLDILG

NTRK2 (human) = NTRK2 (human) (UniProt Q16620)
NTRK2 (human), sequence (Q16620 whole entry, looked up): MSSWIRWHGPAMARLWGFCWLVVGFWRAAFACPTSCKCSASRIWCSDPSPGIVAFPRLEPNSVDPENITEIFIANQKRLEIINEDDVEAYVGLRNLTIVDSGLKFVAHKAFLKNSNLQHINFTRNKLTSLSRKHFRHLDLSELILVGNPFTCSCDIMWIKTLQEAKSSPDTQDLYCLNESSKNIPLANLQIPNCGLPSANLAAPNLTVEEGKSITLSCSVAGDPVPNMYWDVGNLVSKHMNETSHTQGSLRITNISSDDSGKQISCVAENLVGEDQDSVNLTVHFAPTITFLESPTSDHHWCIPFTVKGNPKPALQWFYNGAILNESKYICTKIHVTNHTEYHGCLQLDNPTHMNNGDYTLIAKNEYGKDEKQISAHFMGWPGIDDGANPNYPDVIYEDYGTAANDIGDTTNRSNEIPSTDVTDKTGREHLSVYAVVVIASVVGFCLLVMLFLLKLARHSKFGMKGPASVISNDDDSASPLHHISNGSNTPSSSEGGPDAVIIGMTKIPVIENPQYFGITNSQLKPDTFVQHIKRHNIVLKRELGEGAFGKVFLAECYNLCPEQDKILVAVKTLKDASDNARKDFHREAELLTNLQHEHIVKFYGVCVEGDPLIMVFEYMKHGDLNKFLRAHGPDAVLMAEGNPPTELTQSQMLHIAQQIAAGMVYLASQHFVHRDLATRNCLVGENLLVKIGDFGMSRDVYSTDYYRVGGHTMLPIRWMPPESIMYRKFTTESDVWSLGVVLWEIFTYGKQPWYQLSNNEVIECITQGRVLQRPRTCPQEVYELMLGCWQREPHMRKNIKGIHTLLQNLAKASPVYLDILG

MAPK12 (human) = MAPK12 (human) (UniProt P53778)
PAK3 (human) = PAK3 (human) (UniProt O75914)
PRKG2 (human) = PRKG2 (human) (UniProt Q13237)
AKT3 (human) = AKT3 (human) (UniProt Q9Y243)
AKT3 (human), sequence (Q9Y243 whole entry, looked up): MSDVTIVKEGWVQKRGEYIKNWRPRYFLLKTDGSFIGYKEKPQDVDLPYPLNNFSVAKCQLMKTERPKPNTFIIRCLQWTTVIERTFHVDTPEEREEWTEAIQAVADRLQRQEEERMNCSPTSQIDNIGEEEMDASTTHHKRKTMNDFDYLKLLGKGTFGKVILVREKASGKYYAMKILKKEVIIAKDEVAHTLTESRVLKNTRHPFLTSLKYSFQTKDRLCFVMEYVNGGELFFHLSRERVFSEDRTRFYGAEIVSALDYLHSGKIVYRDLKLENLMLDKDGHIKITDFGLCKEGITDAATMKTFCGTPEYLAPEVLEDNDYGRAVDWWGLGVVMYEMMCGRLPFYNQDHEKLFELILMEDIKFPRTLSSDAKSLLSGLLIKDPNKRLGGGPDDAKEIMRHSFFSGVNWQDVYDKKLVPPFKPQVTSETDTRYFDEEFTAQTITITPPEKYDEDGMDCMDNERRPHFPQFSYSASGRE

STK11 (human) = STK11 (human) (UniProt Q15831)
STK11 (human), sequence (Q15831 whole entry, looked up): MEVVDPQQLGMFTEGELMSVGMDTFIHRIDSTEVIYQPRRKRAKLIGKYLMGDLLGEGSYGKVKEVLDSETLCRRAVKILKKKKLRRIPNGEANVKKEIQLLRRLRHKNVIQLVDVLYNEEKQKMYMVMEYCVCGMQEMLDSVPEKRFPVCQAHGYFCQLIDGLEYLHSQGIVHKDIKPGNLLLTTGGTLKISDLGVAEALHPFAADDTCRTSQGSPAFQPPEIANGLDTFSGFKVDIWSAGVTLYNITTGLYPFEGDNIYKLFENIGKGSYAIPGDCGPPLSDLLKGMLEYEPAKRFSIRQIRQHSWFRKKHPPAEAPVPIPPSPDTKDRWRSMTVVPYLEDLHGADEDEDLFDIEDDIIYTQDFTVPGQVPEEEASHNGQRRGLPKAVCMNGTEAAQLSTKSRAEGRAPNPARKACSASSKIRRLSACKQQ

PRKG1 (human) = PRKG1 (human) (UniProt Q13976)

Structure (SMILES): CCC(=O)Nc1ccc2ncnc(Nc3cccc(Br)c3)c2c1
- residual activity (ROCK2 (human)): 86.1%
- residual activity (MAPK3 (human)): 101%
- residual activity (CDK9 CCNT1 (human)): 93.7%
- residual activity (PRKCG (human)): 102%
- residual activity (CSNK1E (human)): 98.2%
- residual activity (PRKACA (human)): 94.6%
- residual activity (EPHA5 (human)): 101%
- residual activity (CHUK (human)): 99.3%
- residual activity (IKBKB (human)): 94.9%
- residual activity (MAPK13 (human)): 106%
- residual activity (ULK1 (human)): 103%
- residual activity (PKN2 (human)): 106%
- residual activity (MARK4 (human)): 80.2%
- residual activity (TGFBR2 (human)): 116%
- residual activity (NLK (human)): 95.9%
- residual activity (MAPK1 (human)): 77.7%
- residual activity (CAMK1D (human)): 104%
- residual activity (CLK3 (human)): 99.3%
- residual activity (CSNK2A2 (human)): 61.4%
- residual activity (RAF1 (human)): 98.4%
- residual activity (ALK (human)): 83.1%
- residual activity (NTRK1 (human)): 95.8%
- residual activity (CDC42BPB (human)): 114%
- residual activity (FGFR4 (human)): 95.2%
- residual activity (MAP3K11 (human)): 97.1%
- residual activity (CDK5 CDK5R1 p35 (human)): 100%
- residual activity (ADRBK2 (human)): 99.2%
- residual activity (PRKCE (human)): 99.7%
- residual activity (WNK3 (human)): 99.3%
- residual activity (GRK4 (human)): 96.2%
- residual activity (ERBB4 (human)): 82.3%
- residual activity (HIPK3 (human)): 92.1%
- residual activity (EPHA2 (human)): 101%
- residual activity (TSSK1B (human)): 73.2%
- residual activity (NTRK3 (human)): 95.8%
- residual activity (NTRK2 (human)): 77.1%
- residual activity (MAPK12 (human)): 103%
- residual activity (PAK3 (human)): 105%
- residual activity (PRKG2 (human)): 110%
- residual activity (AKT3 (human)): 94.4%
- residual activity (STK11 (human)): 103%
- residual activity (PRKG1 (human)): 101% and 110%

Structure (SMILES): c1ccc(-c2n[nH]c3c2oc2ccccc23)cc1
- residual activity (ROCK2 (human)): 87.3%
- residual activity (MAPK3 (human)): 87.3%
- residual activity (CDK9 CCNT1 (human)): 83.9%
- residual activity (PRKCG (human)): 99.9%
- residual activity (CSNK1E (human)): 91.8%
- residual activity (PRKACA (human)): 97.5%
- residual activity (EPHA5 (human)): 92.1%
- residual activity (CHUK (human)): 92.3%
- residual activity (IKBKB (human)): 92.2%
- residual activity (MAPK13 (human)): 109%
- residual activity (ULK1 (human)): 124%
- residual activity (PKN2 (human)): 97.5%
- residual activity (MARK4 (human)): 98.2%
- residual activity (TGFBR2 (human)): 94.1%
- residual activity (NLK (human)): 92.3%
- residual activity (MAPK1 (human)): 118%
- residual activity (CAMK1D (human)): 92.9%
- residual activity (CLK3 (human)): 91%
- residual activity (CSNK2A2 (human)): 85.6%
- residual activity (RAF1 (human)): 94.9%
- residual activity (ALK (human)): 95.9%
- residual activity (NTRK1 (human)): 85.6%
- residual activity (CDC42BPB (human)): 99%
- residual activity (FGFR4 (human)): 85.5%
- residual activity (MAP3K11 (human)): 91.8%
- residual activity (CDK5 CDK5R1 p35 (human)): 85.8%
- residual activity (ADRBK2 (human)): 119%
- residual activity (PRKCE (human)): 86%
- residual activity (WNK3 (human)): 91.5%
- residual activity (GRK4 (human)): 110%
- residual activity (ERBB4 (human)): 89.7%
- residual activity (HIPK3 (human)): 80.7%
- residual activity (EPHA2 (human)): 105%
- residual activity (TSSK1B (human)): 97.2%
- residual activity (NTRK3 (human)): 42.7%
- residual activity (NTRK2 (human)): 64%
- residual activity (MAPK12 (human)): 100%
- residual activity (PAK3 (human)): 89.2%
- residual activity (PRKG2 (human)): 109%
- residual activity (AKT3 (human)): 84.4%
- residual activity (STK11 (human)): 107%
- residual activity (PRKG1 (human)): 102% and 103%

Structure (SMILES): O=C1NC(=O)/C(=C/c2ccc3c(c2)OC(F)(F)O3)S1
- residual activity (ROCK2 (human)): 92.4%
- residual activity (MAPK3 (human)): 91.6%
- residual activity (CDK9 CCNT1 (human)): 98.7%
- residual activity (PRKCG (human)): 101%
- residual activity (CSNK1E (human)): 96.9%
- residual activity (PRKACA (human)): 101%
- residual activity (EPHA5 (human)): 100%
- residual activity (CHUK (human)): 88.4%
- residual activity (IKBKB (human)): 96.1%
- residual activity (MAPK13 (human)): 101%
- residual activity (ULK1 (human)): 100%
- residual activity (PKN2 (human)): 113%
- residual activity (MARK4 (human)): 97.8%
- residual activity (TGFBR2 (human)): 107%
- residual activity (NLK (human)): 93.8%
- residual activity (MAPK1 (human)): 85.7%
- residual activity (CAMK1D (human)): 83.2%
- residual activity (CLK3 (human)): 96.8%
- residual activity (CSNK2A2 (human)): 29.9%
- residual activity (RAF1 (human)): 95.5%
- residual activity (ALK (human)): 83.4%
- residual activity (NTRK1 (human)): 92.5%
- residual activity (CDC42BPB (human)): 96.4%
- residual activity (FGFR4 (human)): 91%
- residual activity (MAP3K11 (human)): 97.8%
- residual activity (CDK5 CDK5R1 p35 (human)): 103%
- residual activity (ADRBK2 (human)): 102%
- residual activity (PRKCE (human)): 103%
- residual activity (WNK3 (human)): 91.5%
- residual activity (GRK4 (human)): 102%
- residual activity (ERBB4 (human)): 99.5%
- residual activity (HIPK3 (human)): 90.1%
- residual activity (EPHA2 (human)): 96.3%
- residual activity (TSSK1B (human)): 93.3%
- residual activity (NTRK3 (human)): 98%
- residual activity (NTRK2 (human)): 91.9%
- residual activity (MAPK12 (human)): 92.8%
- residual activity (PAK3 (human)): 93.1%
- residual activity (PRKG2 (human)): 104%
- residual activity (AKT3 (human)): 103%
- residual activity (STK11 (human)): 96.9%
- residual activity (PRKG1 (human)): 109% and 95.6%

Structure (SMILES): Oc1cccc(-c2nc(N3CCOCC3)c3oc4ncccc4c3n2)c1
- residual activity (ROCK2 (human)): 94.5%
- residual activity (MAPK3 (human)): 94.1%
- residual activity (CDK9 CCNT1 (human)): 105%
- residual activity (PRKCG (human)): 102%
- residual activity (CSNK1E (human)): 87.1%
- residual activity (PRKACA (human)): 99.5%
- residual activity (EPHA5 (human)): 102%
- residual activity (CHUK (human)): 94.8%
- residual activity (IKBKB (human)): 98.3%
- residual activity (MAPK13 (human)): 97.4%
- residual activity (ULK1 (human)): 113%
- residual activity (PKN2 (human)): 87.6%
- residual activity (MARK4 (human)): 93.4%
- residual activity (TGFBR2 (human)): 102%
- residual activity (NLK (human)): 97.4%
- residual activity (MAPK1 (human)): 89%
- residual activity (CAMK1D (human)): 121%
- residual activity (CLK3 (human)): 93.1%
- residual activity (CSNK2A2 (human)): 56.2%
- residual activity (RAF1 (human)): 79.1%
- residual activity (ALK (human)): 90.5%
- residual activity (NTRK1 (human)): 94.9%
- residual activity (CDC42BPB (human)): 99.4%
- residual activity (FGFR4 (human)): 102%
- residual activity (MAP3K11 (human)): 96.5%
- residual activity (CDK5 CDK5R1 p35 (human)): 101%
- residual activity (ADRBK2 (human)): 110%
- residual activity (PRKCE (human)): 100%
- residual activity (WNK3 (human)): 93.9%
- residual activity (GRK4 (human)): 102%
- residual activity (ERBB4 (human)): 97.6%
- residual activity (HIPK3 (human)): 93.8%
- residual activity (EPHA2 (human)): 99.9%
- residual activity (TSSK1B (human)): 93.4%
- residual activity (NTRK3 (human)): 91.1%
- residual activity (NTRK2 (human)): 90.2%
- residual activity (MAPK12 (human)): 93.4%
- residual activity (PAK3 (human)): 97.5%
- residual activity (PRKG2 (human)): 89.2%
- residual activity (AKT3 (human)): 99%
- residual activity (STK11 (human)): 86.4%
- residual activity (PRKG1 (human)): 109% and 96.3%
